In one assay the test system is male C57BL/6 inbred mice. Briefly: THC drug discrimination. Type of assay: in vivo. The note with it: for Effect on response rate: compared to vehicle; for ED50 for substitution in THC discrimination: mice trained with 5.6 mg/kg THC i.p., value (95% confidence limits); for ED50: Mus musculus, ip, read-out: ED50 for substitution in THC discrimination.
In another assay the target is human CB1 (hCB1) (Homo sapiens, UniProt P21554). Nature of the assay: [3H]CP55,940 displacement binding at hCB1 membranes.
Sequence of human CB1 (hCB1) (P21554 whole entry): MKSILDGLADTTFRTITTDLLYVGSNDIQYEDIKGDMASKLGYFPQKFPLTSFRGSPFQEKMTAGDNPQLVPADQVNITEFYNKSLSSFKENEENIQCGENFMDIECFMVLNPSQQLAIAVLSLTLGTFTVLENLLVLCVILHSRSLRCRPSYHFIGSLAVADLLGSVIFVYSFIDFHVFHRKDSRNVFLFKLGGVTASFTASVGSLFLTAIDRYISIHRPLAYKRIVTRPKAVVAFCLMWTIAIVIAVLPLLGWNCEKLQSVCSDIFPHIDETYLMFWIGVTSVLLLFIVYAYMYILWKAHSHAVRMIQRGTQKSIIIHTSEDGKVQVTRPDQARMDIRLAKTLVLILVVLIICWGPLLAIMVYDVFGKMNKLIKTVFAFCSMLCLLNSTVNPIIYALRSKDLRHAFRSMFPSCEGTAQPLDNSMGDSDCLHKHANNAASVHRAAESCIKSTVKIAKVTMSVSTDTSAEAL
A further assay addresses human CB2 (hCB2) (Homo sapiens, UniProt P34972). Nature of the assay: [3H]CP55,940 displacement binding at hCB2 membranes.
In the next assay the target is hCB1 receptor (Homo sapiens, UniProt P21554). Nature of the assay: Agonist-stimulated [35S]GTPγS binding, hCB1 membranes. Particulars: for Emax: read-out: [35S]GTPγS Turnover CB1 Emax. Background: GTPγS is a poorly hydrolysed GTP analogue; its binding reports G protein activation.
Sequence of hCB1 receptor (P21554 whole entry): as above
The next assay addresses hCB2 receptor (Homo sapiens, UniProt P34972). Nature of the assay: Agonist-stimulated [35S]GTPγS binding, hCB2 membranes. The note with it: for Emax: read-out: [35S]GTPγS Turnover CB2 Emax.
Another assay addresses CB1 receptors. The note with it: read-out: CB1 affinity; rat CB1 receptors ref Huffman et al., 2005; cited from earlier work.

Several values for one entry are separate records, joined by “and”; a condition that tells them apart may be missing. Equal values may be shown once. Read-outs that look alike come from different tables or passages of the source.

Sequence of human CB2 (hCB2) (P34972 whole entry): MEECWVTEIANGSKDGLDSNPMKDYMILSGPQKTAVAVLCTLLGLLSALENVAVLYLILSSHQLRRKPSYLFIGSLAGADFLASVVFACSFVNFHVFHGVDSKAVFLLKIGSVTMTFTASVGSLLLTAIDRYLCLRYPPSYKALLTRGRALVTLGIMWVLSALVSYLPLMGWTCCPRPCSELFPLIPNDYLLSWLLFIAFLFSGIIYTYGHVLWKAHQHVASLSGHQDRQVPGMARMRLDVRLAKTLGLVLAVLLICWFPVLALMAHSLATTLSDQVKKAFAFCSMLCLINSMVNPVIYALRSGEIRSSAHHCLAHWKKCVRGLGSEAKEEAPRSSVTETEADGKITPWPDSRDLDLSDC
Sequence of hCB2 receptor (P34972 whole entry): as above

Consider `CCCCCCC(C)(C)c1ccc(C2CC(O)CCC2CCCO)c(O)c1` (single isomer, unassigned; (-)) [CP55,940, (-)-cis-3-[2-Hydroxy-4-(1,1-dimethylheptyl)phenyl]-trans-4-(3-hydroxypropyl)cyclohexanol, reference compound], for which, in the assay on male C57BL/6 inbred mice (0.3 mg/kg), the “Substitution for THC in drug discrimination” value (“Substitution for THC” below) is on record as “full substitution” and the “Effect on response rate” value is reported as “reductions in response rates”. For the same molecule, the “ED50 for substitution in THC discrimination” value (from here on “ED50 for substitution”) in the assay with male C57BL/6 inbred mice was 0.07 (0.04-0.14) μmol/kg.
The ED50 is the dose that gives a 50% effect, or the effect in half of the subjects. By EC50 is commonly meant the concentration needed to bring the measured effect to its halfway point. Usually Emax stands for the greatest response seen or fitted, relative to the assay's reference. Consider `CCCCCn1cc(C(=O)c2ccccc2I)c2ccccc21` [AM-679, (2-iodophenyl)(1-pentyl-1H-indol-3-yl)methanone], for which the Ki at human CB1 (hCB1) came to 39.6 nM; on human CB2 (hCB2) it was 2.1 nM. In addition, in the assay on male C57BL/6 inbred mice, the ED50 worked out at 5.8 µmol/kg. The EC50 at hCB1 receptor amounted to 881 nM; on hCB2 receptor it was 19 nM. Besides, the Emax at hCB1 receptor came out at 132%; on hCB2 receptor it was 31.1%.
For `CN1CCCC[C@@H]1Cn1cc(C(=O)c2cccc3ccccc23)c2ccccc21` [AM-1220, (R)-(1-((1-methylpiperidin-2-yl)methyl)-1H-indol-3-yl)(naphthalen-1-yl)methanone], the Ki at human CB2 (hCB2) turned out to be 0.26 nM. Besides, the ED50 in the assay on male C57BL/6 inbred mice stood at 0.26 µmol/kg. Also, the Emax at hCB1 receptor came to 132%. In addition, the “[35S]GTPγS Turnover CB2 Emax” value on hCB2 receptor (% maximal increase over basal, hCB2, value (SEM)) is “Not determinable”. On hCB2 receptor (hCB2 membranes, value (SEM)), the “[35S]GTPγS Turnover CB2 EC50” value is recorded as “Not determinable”.
On human CB1 (hCB1), `N#CCCCCn1cc(C(=O)c2cccc3ccccc23)c2ccccc21` [AM-2232, 5-(3-(1-naphthoyl)-1H-indol-1-yl)pentanenitrile] showed a Ki of 14.5 nM. The molecule also returned a Ki at human CB2 (hCB2) of 11.2 nM. In the assay on male C57BL/6 inbred mice (1.0 mg/kg), the “Substitution for THC” value is “full substitution” and the “Effect on response rate” value is “reductions in response rates”. Moreover, in the assay on male C57BL/6 inbred mice, the ED50 amounted to 0.54 µmol/kg. Moreover, on hCB1 receptor, a half-maximal effect (EC50) was put at 833 nM and the Emax turned out to be 204%. Further, at hCB2 receptor, the EC50 stood at 406 nM and the Emax worked out at 31.3%.
Take `CN1CCCCC1Cn1cc(C(=O)c2ccccc2I)c2ccccc21` (stereo not shown) [AM-2233, 1-[(N-methylpiperidin-2-yl)methyl]-3-(2-iodobenzoyl)indole]: the Ki on human CB1 (hCB1) is 6.63 nM; on human CB2 (hCB2) it was 0.48 nM. Also, the ED50 in the assay with male C57BL/6 inbred mice amounted to 0.42 µmol/kg. Besides, the EC50 at hCB1 receptor was determined as 213 nM; at hCB2 receptor it was 715 nM. For the same molecule, the Emax on hCB1 receptor turned out to be 144%; on hCB2 receptor, 21%.
Regarding `CCc1ccc(C(=O)c2cn(CCCCCF)c3ccccc23)c2ccccc12` [EAM-2201, (4-ethyl-1-naphthalenyl)[1-(5-fluoropentyl)-1H-indol-3-yl]-methanone], the Ki at human CB1 (hCB1) was 0.41 nM; at human CB2 (hCB2) it was 0.38 nM. In addition, the ED50 with male C57BL/6 inbred mice was found to be 0.04 µmol/kg. In addition, in the assay on male C57BL/6 inbred mice (across the dose range tested), the “Effect on response rate” value is listed as “no doses produced significant differences from vehicle”. Further, the EC50 at hCB1 receptor was 46.8 nM; on hCB2 receptor, 91.9 nM. Also, the values for the Emax on hCB1 receptor and at hCB2 receptor were 270% and 40.2%, respectively.
In the case of `CCCCCn1cc(C(=O)c2ccc(CC)c3ccccc23)c2ccccc21` [JWH-210, 4-ethylnaphthalen-1-yl-(1-pentylindol-3-yl)methanone], the Ki on human CB2 (hCB2) stood at 0.94 nM. Moreover, the ED50 with male C57BL/6 inbred mice stood at 0.33 µmol/kg. Further, the EC50 at hCB1 receptor came to 116 nM; on hCB2 receptor it was 51 nM. In addition, the figures for the maximum response (Emax) at hCB1 receptor and at hCB2 receptor were 287% and 43.6%, respectively.
`CCCCCn1cc(C(=O)Cc2ccccc2C)c2ccccc21` [JWH-251, 2-(2-methylphenyl)-1-(1-pentyl-1H-indol-3-yl)ethenone]: the Ki on human CB1 (hCB1) (read-out: CB1 Ki, [3H]CP55,940 displacement, hCB1, value (SEM)) was 16 nM and 16.2 nM; on human CB2 (hCB2) (read-out: CB2 Ki, [3H]CP55,940 displacement, hCB2, value (SEM)) it was 15 nM and 15.1 nM; on CB1 receptors, 29 ± 3 nM. The “ED50 for substitution” value in the assay on male C57BL/6 inbred mice is reported as 4.07 (3.11-5.31) μmol/kg. Moreover, the “[35S]GTPγS Turnover CB1 Emax” value on hCB1 receptor (% maximal increase over basal, hCB1, value (SEM)) is 227.6 (31.6) 3%. In addition, the EC50 was found to be 918 nM on hCB1 receptor (read-out: [35S]GTPγS Turnover CB1 EC50, hCB1 membranes, value (SEM)) and 1520 nM at hCB2 receptor (read-out: [35S]GTPγS Turnover CB2 EC50, hCB2 membranes, value (SEM)).
`Cc1ccc(C(=O)c2cn(CCCCCF)c3ccccc23)c2ccccc12` [MAM-2201, (1-(5-fluoropentyl)-1H-indol-3-yl)(4-methyl-1-naphthalenyl)-methanone]: the Ki at human CB1 (hCB1) is 1.86 nM. In addition, the Ki on human CB2 (hCB2) worked out at 0.59 nM. In the assay on male C57BL/6 inbred mice (0.3 mg/kg), the “Substitution for THC” value is given as “full substitution” and the “Effect on response rate” value is “reductions in response rates”. The median effective dose (ED50) in the assay on male C57BL/6 inbred mice amounted to 0.11 µmol/kg. On hCB1 receptor, a half-maximal effect (EC50) was put at 36.1 nM and the maximal response (Emax) is 310%. At hCB2 receptor, the EC50 came out at 1.93 nM and the Emax came to 23.2%. Further, on hCB2 receptor (more potent than CP55,940), the “Potency for stimulating [35S]GTPγS turnover at CB2 relative to CP55,940” value is “approximately 4 fold”.
In the case of `CCCCCc1cc(O)c2c(c1)OC(C)(C)[C@@H]1CCC(C)=C[C@@H]21` [THC, Δ^9-tetrahydrocannabinol, reference compound], the “Effect on response rate” value in the assay with male C57BL/6 inbred mice (across the dose range tested) is on record as “did not alter response rates”. Besides, the “ED50 for substitution” value in the assay with male C57BL/6 inbred mice is listed as 4.96 (3.41-7.21) μmol/kg.
